Among the data in US6551999B1, “Angiogenesis inhibitor” (Senju Pharmaceutical Co., Ltd., priority 1995, dated 2003) are IC50 values, retold here.

Holding throughout (type): biochemical
In one test the target is T1, cathepsin L (Homo sapiens, UniProt P07711).
T1 construct: purchased Cosmo Bio
The experiment in a line: Assay of cathepsin L-inhibitory activity (Z-Phe-Arg-MCA). The settings on record: 20 minutes at 30° C., pH 5.5. How it is done: The activity of cathepsin L (Cosmo Bio), a cysteine protease, was assayed by the method described in the literature [Methods in Enzymology, 80, 535-561, 1981]. Thus, to a solution containing 85 mM acetate buffer (pH 5.5), 2 mM dithiothreitol, 1 mM EDTA, 2 μg cathepsin L, and a varying concentration of the test compound was added 50 μl of 20 μM carbobenzoxy-L-phenylalanyl-L-arginine-4-methylcoumaryl-7-amide (Z-Phe-Arg-MCA) to initiate the reaction at the final liquid volume of 200 μl. After 20 minutes of reaction at 30° C., 20 μl of 1 M Tris-HCl (pH 8.0) was added so as to stop the reaction. The amount of liberated 4-methyl-7-aminocoumarin was determined with a fluorospectrometer at an excitation wavelength of 360 nm and a fluorescent emission wave length of 450 nm. Using the value found without addition of the test drug as control and the value found without addition of the enzyme as blank, IC50 was determined in the same manner as above.

The target of another test is T2, μ-calpain (Homo sapiens, UniProt P07384).
T2 construct: purchased Nakalai Tesque
T2 sequence (P07384 1-714): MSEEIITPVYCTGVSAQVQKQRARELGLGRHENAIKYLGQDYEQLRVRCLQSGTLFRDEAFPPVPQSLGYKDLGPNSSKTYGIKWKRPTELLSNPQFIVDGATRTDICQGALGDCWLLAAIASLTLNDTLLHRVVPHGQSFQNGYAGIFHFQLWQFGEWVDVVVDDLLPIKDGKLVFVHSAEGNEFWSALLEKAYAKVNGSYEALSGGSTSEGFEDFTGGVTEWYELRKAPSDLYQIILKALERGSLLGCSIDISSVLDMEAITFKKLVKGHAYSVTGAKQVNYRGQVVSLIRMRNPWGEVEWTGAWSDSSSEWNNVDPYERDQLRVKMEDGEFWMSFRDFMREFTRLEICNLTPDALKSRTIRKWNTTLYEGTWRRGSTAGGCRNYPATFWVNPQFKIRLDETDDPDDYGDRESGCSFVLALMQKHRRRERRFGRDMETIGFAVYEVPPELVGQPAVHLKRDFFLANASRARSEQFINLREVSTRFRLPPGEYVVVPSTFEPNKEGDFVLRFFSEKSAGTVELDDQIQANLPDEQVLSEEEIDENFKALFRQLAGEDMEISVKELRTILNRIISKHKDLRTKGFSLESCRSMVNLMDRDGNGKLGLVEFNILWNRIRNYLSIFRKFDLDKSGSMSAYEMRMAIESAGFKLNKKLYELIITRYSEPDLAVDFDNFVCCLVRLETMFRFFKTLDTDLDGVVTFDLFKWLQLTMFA
T2 sequence (P04632 1-268 partner): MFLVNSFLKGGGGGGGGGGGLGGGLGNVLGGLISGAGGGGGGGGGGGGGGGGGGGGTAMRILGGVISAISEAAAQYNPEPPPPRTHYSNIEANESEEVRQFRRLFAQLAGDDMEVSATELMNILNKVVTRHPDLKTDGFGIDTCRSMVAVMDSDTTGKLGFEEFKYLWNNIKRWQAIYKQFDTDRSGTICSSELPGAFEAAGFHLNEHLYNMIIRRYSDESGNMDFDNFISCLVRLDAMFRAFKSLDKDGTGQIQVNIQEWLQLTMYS
The test is described as follows: μ-Calpain-inhibitory activity (casein substrate). The settings on record: 60 minutes at 30° C., pH 7.4, 4 mM calcium chloride. Here is the method:
Thus, to a solution containing 0.5 mg/ml casein, 50 mM Tris-HCl (pH 7.4), 20 mM dithiothreitol, and 4 mM calcium chloride was added 2.5 μl of a dimethyl sulfoxide solution containing a varying concentration of the test drug as well as 0.03 unit of μcalpain to initiate the reaction. The final liquid volume was 250 μl. After 60 minutes of reaction at 30° C., 100 μl of the reaction mixture was transferred to another vessel, to which 50 μl of purified water and 100 μl of 50% Coumassie brilliant blue solution were added. […] As a control, 2.5 μl of dimethyl sulfoxide not containing the test drug was added and the mixture was treated in the same manner as above. […] Similarly, the value found by adding 0.2 mM EDTA in lieu of 4 mM aqueous calcium chloride solution was used as the blank value. […] [formula]

In the next test the target is T3, trypsin (UniProt P00760).
T3 sequence (P00760 1-246): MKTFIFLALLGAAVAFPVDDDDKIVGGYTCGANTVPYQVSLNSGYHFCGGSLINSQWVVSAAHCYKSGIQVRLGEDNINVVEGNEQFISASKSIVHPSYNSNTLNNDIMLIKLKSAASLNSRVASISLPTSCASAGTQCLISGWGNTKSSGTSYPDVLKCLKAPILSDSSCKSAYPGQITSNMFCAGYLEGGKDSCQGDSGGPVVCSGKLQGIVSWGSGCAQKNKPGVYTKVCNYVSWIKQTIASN
The test is described as follows: Assay of trypsin-inhibitory activity (casein substrate). The settings on record: read-out: Trypsin 50% Inhibitory concentration (IC50); 60 minutes at 30° C., pH 8.0. Here is the method:
(§1) The activity of papain which is a cysteine protease and of trypsin (Sigma) which is a serine protease was assayed in accordance with the method described in the literature [Anal. Biochem., 208, 387-392, 1993]. Thus, to a solution containing 0.5 mg/ml casein, 50 mM Tris-HCl (pH 8.0), 20 mM dithiothreitol, and 0.2 mM EDTA was added 2.5 μl of dimethyl sulfoxide containing a varying concentration of the test drug as well as 0.03 unit of papain or trypsin to initiate the reaction. The final liquid volume was adjusted to 250 μl. After 60 minutes of reaction at 30° C., 100 μl of the reaction mixture was transferred to another vessel and following addition of 50 μl of purified water and 100 μl of 50% Coumassie brilliant blue solution, the mixture was allowed to stand at room temperature for 15 minutes. The absorbance of the mixture was then measured at 595 nm. Using the value found similarly by adding 2.5 μl of dimethyl sulfoxide not containing the test drug as control and the value found without addition of the enzyme as blank, IC50 was determined in the same manner as above.

The target in the next test is T4, papain (Carica papaya, UniProt P00784).
T4 sequence (P00784 134-345): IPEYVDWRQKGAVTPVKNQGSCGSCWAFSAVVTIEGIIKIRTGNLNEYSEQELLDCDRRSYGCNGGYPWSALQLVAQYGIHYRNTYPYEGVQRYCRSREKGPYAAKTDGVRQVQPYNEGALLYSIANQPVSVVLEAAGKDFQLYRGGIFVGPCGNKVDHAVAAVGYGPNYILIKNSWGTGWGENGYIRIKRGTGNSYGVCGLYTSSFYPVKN
The test is described as follows: Assay of papain-inhibitory activity (casein substrate). Particulars: 60 minutes at 30° C., pH 8.0. Here is the method:
as §1

Some results are limits rather than exact numbers.

T1 sequence (P07711 114-333, species assumed): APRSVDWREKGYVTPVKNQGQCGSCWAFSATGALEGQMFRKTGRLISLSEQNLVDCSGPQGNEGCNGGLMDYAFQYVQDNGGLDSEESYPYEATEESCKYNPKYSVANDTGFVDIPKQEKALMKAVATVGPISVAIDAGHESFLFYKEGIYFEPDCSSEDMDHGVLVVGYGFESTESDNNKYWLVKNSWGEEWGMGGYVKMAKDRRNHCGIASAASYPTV

As for `CCC(C)[C@H](NC(=O)[C@H]1O[C@@H]1C(=O)O)C(=O)N1CCN(c2ccccc2Cl)CC1` (stereo partly drawn) [Compound 24, (2s,3s)-3-[[[[(1s)-1-[[4-(2-chlorophenyl)-1-piperazinyl]carbonyl]-2-methyl]butyl]amino]carbonyl]oxiranecarboxylic acid], the IC50 is 9 nM against cathepsin L, 840 nM at μ-calpain, > 3 mM on trypsin and 47 nM on papain.

Consider `O=C(O)[C@H]1O[C@@H]1C(=O)NCC(=O)N1CCN(c2ccccc2Cl)CC1` [Compound 22, (2s,3s)-3-[[[[[4-(2-chlorophenyl)-1-piperazinyl]carbonyl]methyl]amino]carbonyl]oxiranecarboxylic acid], for which the IC50 is 38000 nM at cathepsin L, 18000 nM on μ-calpain, > 3 mM at trypsin and 4000 nM against papain.

`CC(C)C[C@H](NC(=O)[C@H]1O[C@@H]1C(=O)O)C(=O)N1CCN(c2ccccc2Cl)CC1` [Compound 17, (2s,3s)-3-[[[[(1s)-1-[[4-(2-chlorophenyl)-1-piperazinyl]carbonyl]-3-methyl]butyl]amino]carbonyl]oxiranecarboxylic acid]: the IC50 at cathepsin L was 27 nM; on μ-calpain, 350 nM; at trypsin, > 3 mM; at papain, 62 nM.
